Measured values published in ChEMBL document CHEMBL1137806, “Cytotoxic oxoisoaporphine alkaloids from Menispermum dauricum” (J Nat Prod, 2001).

Experiments:
Assay type in all cases: functional, cell-based
A549 = assay: Cytotoxicity against human A549 cells by MTT assay
MCF7 = assay: Cytotoxicity against human MCF7 cells by MTT assay
HL-60 = assay: Cytotoxicity against human HL60 cells by MTT assay
P388 = assay: Cytotoxicity against mouse P388 cells by MTT assay

| Structure (SMILES) | IC50 (A549) [µM] | IC50 (MCF7) [µM] | IC50 (HL-60) [µM] | IC50 (P388) [µM] |
| --- | --- | --- | --- | --- |
| COc1ccc2c(c1)C(=O)c1c(NCCc3ccc(O)cc3)c(OC)cc3ccnc-2c13 [DAURIOXOISOPORPHINE A] | 8.8 | 3 | > 50 | 30.5 |
| COc1ccc2c(c1)C(=O)c1c(N)c(OC)c(OC)c3ccnc-2c13 [DAURIOXOISOPORPHINE B] | > 50 | 6.2 | > 50 | 9.6 |
| COc1cc([C@@H]2c3cc4c(cc3[C@@H](O[C@@H]3O[C@@H]5CO[C@@H](C)O[C@H]5[C@H](O)[C@H]3O)[C@H]3COC(=O)[C@H]23)OCO4)cc(OC)c1O [ETOPOSIDE] | 0.5 | 12.3 | 5.4 | 0.1 |
